In general, logP refers to a log measure of how a compound divides between an organic and an aqueous phase. Higher therefore signals higher lipophilicity. As usually defined, the IC50 is the midpoint of a concentration-inhibition curve.

Series [1] is described as follows: Lipophilicity, shake-flask n-octanol/PBS pH 7.4. Particulars: n-octanol/50 mM PBS pH 7.4, shake-flask, room temperature, at least six measurements. The format is physicochemical. The method, then:
The partition coefficient between n-octanol and PBS at pH 7.4 (log P) was obtained by shake-flask technique at room temperature. In the shake flask experiments 50 mM PBS pH 7.4 was used as aqueous phase; the organic (n-octanol) and aqueous phase (PBS) were mutually saturated by shaking for 4 h. The compounds were solubilised in the buffered aqueous phase at a concentration of 30 μg/ml and appropriate amounts of n-octanol were added. The two phases were shaken for about 20 min, by which time the partitioning equilibrium of solutes is reached, and then centrifuged (10000 rpm, 10 min). The concentration of the solutes was measured in the aqueous phase by UV spectrophotometer (UV-2501PC, Shimadzu); the values of absorbance (223, 268 and 275 nm) were interpolated in calibration curves obtained using standard solutions of compounds (concentration range 30–0.5 μg/ml; r^2 > 0.99). Each log P-value is an average of at least six measurement.

Series [2] concerns BEAS-2B cells. In words: Cell viability (neutral red). The class given is cell-based, Human. Particulars: for IC50: Homo sapiens, BEAS-2B normal bronchial epithelial cells, cell viability, CompuSyn; for cell viability: BEAS-2B, 0.1, 1 or 10 μM, 72 h. The text has this: (§1) Human colon cancer HT29 cells, colon-derived normal fibroblast CCD-18Co cells, lung cancer A549 cells, normal human bronchial epithelial (immortalized with adenovirus 12-SV40 virus hybrid Ad12SV40) BEAS-2B cells, breast cancer MDA-MB-231 cells, normal breast epithelial MCF10A cells, human osteosarcoma U-2OS cells were purchased from ATCC (Manassas, VA, United States). […] All subjects gave written informed consent in accordance with the Declaration of Helsinki. Cells were maintained in medium supplemented with 10% v/v fetal bovine serum, 1% v/v penicillin-streptomycin, 1% v/v L-glutamine. Morphological analysis was performed with a bright field microscope (Leica Microsystems, Wetzlar, Germany). At least 5 fields/experimental condition were examined.
(§2) LDH activity was measured in the extracellular medium and in the cell lysate: 50 μl of extracellular medium or 5 μl of cell lysate were incubated at 37°C with 5 mM NADH. The reaction was started by adding 20 mM pyruvic acid and was monitored for 6 min, measuring absorbance at 340 nm using a Synergy HT Multi-Detection Microplate Reader (Bio-Tek Instruments, Winoosky, MT, United States). […] Both intracellular and extracellular enzyme activities were expressed as μmol NADH oxidized/min/dish. The results were expressed as percentage of extracellular LDH versus total (intracellular plus extracellular) LDH. […] The absorbance of untreated cells was considered as 100% viability; the results were expressed as percentage of viable cells versus untreated cells. IC50 was calculated with the CompuSyn software^1.

In series [3] the test system is A549 cells. In words: Mitochondrial/cytosolic distribution by LC-ESI-MS. The format is cell-based, Human. Particulars: for intracellular hydrolysis of the ester to the parent phenol: 4 h incubation, 0.1 and 1 μM; for penetration into cells / intracellular concentration after direct incubation: A549, 4 h incubation with 0.1 and 1 μM; for mitochondrial vs cytosolic distribution after incubation with 2: 4 h incubation with 0.1 and 1 μM of 2; for cytosolic concentration of 15 after incubation with 1: cytosolic fraction. As for the experimental part:
(§3) Mitochondria were isolated as reported ([Riganti et al., 2013a]). To isolate mitochondrial fractions, 5 × 10^6 cells were washed twice in ice-cold PBS, then lysed in 0.5 ml buffer A (50 mM Tris, 100 mM KCl, 5 mM MgCl2, 1.8 mM ATP, 1 mM EDTA; pH 7.2), supplemented with protease inhibitor cocktail III (Calbiochem. La Jolla, CA, United States), 1 mM phenylmethylsulfonyl fluoride and 250 mM NaF. Samples were clarified by centrifuging at 650 × g for 3 min at 4°C. The supernatant was collected and centrifuged at 13,000 × g for 5 min at 4°C. This supernatant, containing the cytosolic fraction, was stored at -80°C until the use. The pellet containing mitochondria was washed in 0.5 ml buffer A and re-suspended in 0.25 ml buffer B (250 mM sucrose, 15 mM K2HPO4, 2 mM MgCl2, 0.5 mM EDTA, 5% w/v, BSA). A 50 μl aliquot was sonicated and used for the measurement of protein content or Western blotting; the remaining part was stored at -80°C until the use. To confirm the presence of mitochondrial proteins in the extracts and the absence of cytosolic contamination in the mitochondrial fraction, 10 μg of each sonicated sample were subjected to SDS–PAGE and probed with an anti-porin antibody (Abcam, Cambridge, United Kingdom), a mitochondrial marker, and with an anti-glyceraldehyde 3-phosphate dehydrogenase antibody (GAPDH; Santa Cruz Biotechnology Inc., Santa Cruz, CA, United States), a cytosolic marker. Mitochondrial extracts were used only if they had detectable levels of porin and undetectable levels of GAPDH. To exclude any mitochondrial contamination in the cytosolic extracts, the absence of porin and the presence of GAPDH in the latter was analyzed by Western blotting (Supplementary Figure S1). Nuclear proteins were extracted using the Nuclear Extract Kit (Active Motif, La Hulpe, Belgium). 10 μg of nuclear extracts were subjected to SDS–PAGE and probed with antibodies against: proliferator-activated receptor gamma coactivator 1-α (PGC-1α; Abcam), an index of increased mitochondrial biogenesis ([Buondonno et al., 2016]), or TATA box Binding Protein (TBP; Santa Cruz Biotechnology Inc.), as control of equal protein loading.
(§4) The amount of 1, 2, 15, and 16 in the mitochondrial and cytosolic fractions was determined by LC-ESI-MS analyses. LC-ESI-MS analyses were performed with an Acquity Ultra Performance LC^TM (Waters Corporation, Milford, MA, United States), equipped with BSM, SM, CM, and PDA detector. All the chromatographic separations were performed on a Zorbax Eclipse XDB-C18 (5 μm, 150 mm × 4.6 mm) (Agilent Technologies) as a stationary phase. The supernatant samples obtained from incubation were filtered through a 0.45 μm pore size PTFE membrane filter before use. Aliquots (5 μl) were injected onto the system and eluted with a mobile phase (flow rate, 0.5 ml/min) consisting of A, 0.1% formic acid solution, and B, acetonitrile. The following gradient was used: 0–5 min (A = 50%, B = 50%), 5–7 min (to A = 20%, B = 80%), 7–8 min (A = 20%, B = 80%), 8–10 min (to A = 50%, B = 50%). The eluate was injected into the electrospray ion source (ESI), and monitored using Micromass Quattro microTM API ESCi multi-mode ionization Enabled as detector. MS spectra were acquired and processed using MassLynx software. The operating conditions on the triple quadruple mass spectrometer were as follows: positive mode; drying gas (nitrogen) heated at 350°C at a flow rate of 800 l/h; nebulizer gas (nitrogen) at 80 l/h; capillary voltage in positive mode at 3000 V; cone voltage at 30 V. The molecular ion [M]^+ was employed for quantitative measurements of analytes. The values obtained from integration of the peak of compounds were interpolated in a calibration curve obtained using standard solutions at 0.01 to 5 μM. The amount of each compound in the mitochondrial and cytosolic fractions was expressed as pmol/mg proteins.
(§5) FIGURE 5 Intra-mitochondrial and cytosolic accumulation of TPP-derivatives. […]

The test system of series [4] is BEAS-2B cells. Kind of series: Mitochondrial/cytosolic distribution by LC-ESI-MS. The format is cell-based, Human. Particulars: 4 h incubation with 0.1 and 1 μM. As for the experimental part: as §3, §4, §5
In series [5] the test system is A549 cells. Kind of series: Cell viability (neutral red). The class given is cell-based, Human. Particulars: for IC50: cell viability, CompuSyn; for cell viability: A549, 0.1, 1 or 10 μM, 72 h.
Description: as §1, §2

SMILES strings stand for the structures.

Regarding `CC(=O)Oc1ccc(C[P+](c2ccccc2)(c2ccccc2)c2ccccc2)cc1.[Br-]` [Compound 1], the logP in series [1] was 0.64. For the same compound, in the series with BEAS-2B cells [2], the 50% inhibitory concentration (IC50) was 5.26 ± 0.25 µM. In the series on A549 cells [3], the “intracellular hydrolysis of the ester to the parent phenol” value is recorded as “fast hydrolysis into phenol 15” and the penetration into cells entry is “penetrate in good extent”. Besides, in the series on BEAS-2B cells [4], the “concentration in BEAS-2B cells compared with A549 cells” value is given as “at least ten fold lower”.
`O=C(Oc1ccc(C[P+](c2ccccc2)(c2ccccc2)c2ccccc2)cc1C(F)(F)F)c1ccccc1.[Br-]` [Compound 2] showed a logP in series [1] of 3.15. The IC50 in the series with A549 cells [5] (A549 lung cancer cells) was found to be 0.55 ± 0.07 µM. Besides, the half-maximal inhibitory concentration (IC50) with A549 cells [5] (Homo sapiens, A549, A549 lung cancer cells) was less than 1 µM. Further, in the series with BEAS-2B cells [2], the IC50 was found to be 7.36 ± 0.45 µM. In the series with A549 cells [3], the “mitochondrial vs cytosolic distribution after incubation with 2” value is reported as “accumulate almost exclusively at mitochondrial level”, the “intracellular hydrolysis of the ester to the parent phenol” value is reported as “more stable with respect to acetate” and the penetration into cells entry is recorded as “penetrate in good extent”. In addition, the “concentration in BEAS-2B cells compared with A549 cells” value with BEAS-2B cells [4] is recorded as “at least ten fold lower”.
On to `Oc1ccc(C[P+](c2ccccc2)(c2ccccc2)c2ccccc2)cc1.[Br-]` [Compound 15], for which the lipophilicity (logP) in series [1] stood at 0.5. The cell viability result in the series with A549 cells [5] and in the series with BEAS-2B cells [2] was “nor reduced cell viability” throughout. Also, the figures for the “cytosolic concentration of 15 after incubation with 1” value in the series on A549 cells [3] (4 h incubation with 0.1 μM of 1) and in the series with A549 cells [3] (4 h incubation with 1 μM of 1) were “below detection limit” and “very low”, respectively. For the same compound, the “mitochondrial accumulation of 15 after incubation with 1” value in the series on A549 cells [3] (4 h incubation with 0.1 μM of 1, mitochondrial fraction) is “easily detectable”. Further, the “intracellular concentration after direct incubation” value in the series on A549 cells [3] and in the series on BEAS-2B cells [4] was “very low” each time.
With `Oc1ccc(C[P+](c2ccccc2)(c2ccccc2)c2ccccc2)cc1C(F)(F)F.[Br-]` [Compound 16], the logP in series [1] is 1.02. The cell viability entry in the series with A549 cells [5] and with BEAS-2B cells [2] was “nor reduced cell viability” throughout. In addition, the “mitochondrial vs cytosolic distribution after incubation with 2” value with A549 cells [3] is “accumulate almost exclusively at mitochondrial level”. Further, the “intracellular concentration after direct incubation” value in the series on A549 cells [3] and in the series on BEAS-2B cells [4] was “very low” throughout.

The values above are taken from publication PMC5994430, “Mitochondrial Delivery of Phenol Substructure Triggers Mitochondrial Depolarization and Apoptosis of Cancer Cells” (Frontiers in Pharmacology, 2018).
